Test results as given in patent publication US20100166662A1, “MAGNETIC RESONANCE IMAGING METHOD USING VANADYL-BASED CONTRAST AGENTS” (The University of Chicago, priority 2006, published 2010).
Values belong to the molecule of their own block, whether it stands above or below them.

Key:
3T3-L1 adipocytes = test: Uptake of 2-deoxy-D-[1-14C]glucose by 3T3-L1 adipocytes; format: cell-based
Procedure: The effect of vanadyl compounds on uptake of 2-deoxy-D-[1-^14C]glucose by 3T3-L1 adipocytes was measured using methods described in Makinen, M. W., et al., “Structural Origins of the Insulin-Mimetic Activity of Bis(acetylacetonato)oxovanadium(IV),” J. Biol. Chem. 277 (2002) pp. 12215-12220, which is incorporated herein by reference. Serum-starved, differentiated […] adipocytes were used in the metabolic assays. Cells were washed twice with phosphate-buffered isotonic saline at 37° C. and serum-starved for 2.5 hours in Krebs-Ringer buffer lacking bovine serum albumin or serum. The medium was removed, and cells were incubated for 30 minutes in buffer with different concentrations of VO^2+-based contrast agents with or without serum albumin (1 mM) prior to measuring glucose uptake rates. Glucose transport rates were measured by the addition of 20 μM 2-deoxy-D-[1-^14C] glucose.

[1] = Toxicity study in tumor-bearing nude mice (blood parameters, i-STAT); format: in vivo; details: 1 mmol/kg via tail vein, monitored over three days, mice bearing AT6.1 tumor
Procedure: Toxicity studies were performed with tumor-bearing nude mice weighing about 25-30 grams (n=5). An AT6.1 prostate tumor was implanted subcutaneously in the hind limb of the mouse. 1 mmol/kg of VO(acac)2 was administered through a catheter placed in the tail vein. The VO(acac)2 was dissolved in dimethyl sulfoxide and the resulting solution was diluted with saline. The final concentration of DMSO was about 5% by volume. The solution was about 10 mM VO(acac)2.
The pH, pCO2, HCO3^−, TCO2, serum O2, Na^+, K^+, Ca^2+, glucose, blood urea nitrogen (BUN), Hematocrit (Hct) and hemoglobin (Hb) were monitored using an i-STAT analyzer (East Windsor, N.J.) by taking ˜30 μL blood samples over a period of three days.

AT6.1 prostate tumor = test: In vivo MRI and contrast media dynamics in rats bearing AT6.1 tumors; set-up: species or system Copenhagen rat; details: rat
Procedure: MRI studies were performed using a 4.7 Tesla Bruker scanner with multi-slice echo-planner spectroscopic imaging (EPSI). The scanning parameters were as follows: TR/TE of 800/80 msec; field of view 40 mm; array size of 256×256; slice thickness of 0.5 mm; and, an average of 1.
First, high-resolution reference images were acquired by conventional spin echo and gradient echo pulse sequences using multiple slices. These reference images provided anatomic reference information and were used to accurately measure tumor volume. Then multi-slice (usually 3 slices) echo-planner spectroscopic imaging (EPSI) with repetition time (TR) of 800 msec and echo time (TE) of 80 msec were acquired. Acquisition of MRI data using high-resolution EPSI pulse sequence may also be used. These sequence images were acquired with spatial resolution of 200 micron in-plane in ˜500 micron slices and spectral resolution of 2 Hz. These images were acquired at the same spatial resolution as conventional images but provided increased sensitivity to contrast media effects.
A Dunning AT6.1 prostate tumor was implanted subcutaneously in the hind limb of a Copenhagen rat. The tumor was monitored and imaging began when the tumor reached a size of 5-10 mm. The VO^2+-based contrast agent was dissolved in dimethyl sulfoxide and the resulting solution was diluted with saline. The final concentration of DMSO was about 5% by volume. The solution was about 10 mM VO^2+-based contrast agent.
After 6 to 8 pre-contrast MR images were obtained as a reference, 0.15 mmol/kg of VO(acac)2 was injected through a catheter placed in the tail vein of the rat over 5 minutes. During MR imaging, the rats were anesthetized using isofluorane mixed with air and oxygen flowing through a mask. Exhaust gases were eliminated through an F-Air canister attached to the mask set up. Temperature was monitored continuously by a rectal thermometer and controlled with a warm water blanket. Heart rate, respiration rate, and blood pressure were monitored using an optical detector system from SA Instruments (Stony Brook, N.Y.). To minimize motion artifacts, rats were wrapped in co-flex and taped to a Plexiglass board. The leg was secured through the coil in a plastic tube and taped to the cradle.
Post-contrast EPSI scans were acquired for about 4 hours. Each EPSI scan took about 3.5 minutes. Images were used in which the intensity was proportional to the peak height of the water resonance in each voxel. […]
0.15 mmol/kg of VO(acac)2 was injected through a catheter placed in the tail vein of the rat over 5 minutes. […] Temperature was monitored continuously by a rectal thermometer and controlled with a warm water blanket. Heart rate, respiration rate, and blood pressure were monitored using an optical detector system from SA Instruments (Stony Brook, N.Y.). […]

[2] = T1 relaxivity of the contrast agent in buffer; format: physicochemical; details: 0.01 M HEPES buffer pH 7.4 with 0.15 M NaCl; 4.7 Tesla
Procedure: The T1 relaxation times of VO(acac)2 in 0.01 M HEPES buffer at pH 7.4 with 0.15 M NaCl were determined. With the determined T1 values at different concentrations of VO(acac)2, the relaxivity was determined using equation 1,
where T1m is the measured T1 for VO(acac)2, T1w is the T1 for water, C is the concentration of the contrast agent, and r1 is the relaxivity. The relaxivity for VO(acac)2 of 2.5±0.2 mM^−1s^−1 is slightly lower but close to that of known contrast agents of gadolinium complexes of 4.3±0.2 mM^−1s^−1 at 4.7 Tesla. This means that VO(acac)2 can produce significant, easily detectable changes in MR image intensity.

AT6.1 prostate tumors = test: Vanadyl concentration in tumor and muscle tissue by atomic absorption spectroscopy; format: in vivo, nude mice; details: at 5 hours after about 0.15 mmol/kg i.v., mice
Procedure: AT6.1 prostate tumors were implanted subcutaneously in the hind limbs of nude mice. The tumors were monitored and allowed to grow to about 6-8 mm over a period of about 2 weeks. The VO^2+-based contrast agent was dissolved in dimethyl sulfoxide and the resulting solution was diluted with saline. The final concentration of DMSO was about 5% by volume. The solution was about 10 mM VO^2+-based contrast agent. VO(acac)2 was added slowly to the tail vein of each mouse using a syringe infusion pump (Harvard Apparatus, South Natick, Mass.). A total of 100 μL of solution were added in 5 minutes (flow rate=20 μL/minute) for a total dosage of about 0.15 mmol/kg. All mice were kept in a cage and monitored after injection. The mice were then sacrificed at various times. Tissue samples of the tumors and muscles were removed after a mouse was sacrificed. The tissue samples were weighed and then digested by wet digestion using H2O2 and HNO3. Atomic absorption measurements were carried out using Perkin Elmer AAnalyst 300 with an HGA 800 furnace. Control sets (n=3) were free of contrast agent. Measurements were based on standard curves of known vanadyl concentration with a correlation coefficient of 0.99820.

p-AKT = test: Cell signaling study, Western blot of p-AKT in Caco-2 and HCA-7 cells; format: cell-based, human; details: 5 min; for level of p-AKT compared to controls: Caco-2 and HCA-7 cells
Procedure: (§1) HCA-7 and Caco-2 cells derived from human colonic adenocarcinomas obtained from the American Type Culture Collection, Manassas, Va. were cultured at 37° C. in a humidified atmosphere of 5% CO2-95% air in 6-well plates (250,000 cells/well/2 mL in 5% serum medium). When cells were ˜70-80% confluent, cells were transferred to serum-free media and kept overnight. A vanadyl compound was added to a well to a final concentration of 100, 250, or 500 μM and incubated for 5 minutes. In each 6-well plate, 2 wells were set as controls and 4 wells were set for one desired concentration of a vanadyl compounds. Cells were then homogenized in 2× Laemmli sodium dodecyl sulfate (SDS) buffer. Samples were boiled for 5 minutes at 100° C. and proteins quantified using the RC-DC protein assay (Bio-Rad). Western blotting was then carried out, briefly described as follows. SDS-treated samples (50 μg/lane) were separated by SDS-polyacrylamide gel electrophoresis (PAGE) on a 4-15% resolving gel. Pre-stained molecular weight markers were included in each gel. Gels were electroblotted to immobilon-P transfer membranes (Millipore Billerica, Mass.). Following blocking of non-specific antibody binding, the blots were exposed to rabbit polyclonal anti-pAKT (Cell Signaling Technology, Danvers, Mass.) or mouse monoclonal anti-pERK (Santa Cruz Biotechnology, Inc., Santa Cruz, Calif.) and developed with secondary antibody using standard methods. The blots were washed, and the p-AKT and p-ERK were detected in film and digitized for final quantification.
FIG. 3 illustrates two Western blots of p-AKT using Caco-2 (left panel) and HCA-7 cells (right panel) treated with VO(acac)2 in a concentration of 100, 250 or 500 μM (top, middle and bottom rows, respectively). Lane 1 is the control; lanes 2 and 3 are duplicates of cells exposed to VO(acac)2 a particular concentration of VO(acac)2. These blots were analyzed by […] on X-OMAT™ autoradiogram films using an enhanced chemiluminesence system.

[3] = Solubility in aqueous solutions at physiological pH; format: physicochemical
Procedure: Bis(acetylamido)oxovanadium(IV) [VO(acac-NH2)2]. VO(acac-NH2)2 was synthesized according to the procedure described by Crans et al., “Bis(acetylamido)oxovanadium(IV) Complexes: Solid State and Solution Studies,” J. Chem. Soc. Dalton Trans. (2001) pp. 3337-3345. One equivalent of vanadyl sulfate was dissolved in water followed by the addition of 3-equivalents of acetoacetamide under constant stirring. A solution of 10% sodium bicarbonate was then added dropwise to raise the pH from 1.5 to 3.6 in order to form a suspension. A bluish precipitate was obtained after allowing the solution to stand for one day at 4° C. The precipitate was filtered off, washed with a small amount of chloroform, and dried under vacuum.
Bis(acetylacetanato-bisNH2)oxovanadium(IV) [VO(acac-(NH2)2)2]. VO(acac-(NH2)2)2 is synthesized as follows. One equivalent of vanadyl sulfate is dissolved in water followed by the addition of 3 equivalents of malonamide under constant stirring. A solution of 10% sodium bicarbonate is then added dropwise to raise the pH in order to form a suspension. A bluish precipitate is obtained after standing the solution for one day at 4° C. The precipitate is filtered off, washed with a small amount of chloroform, and dried under vacuum.

p-ERK = test: Cell signaling study, Western blot of p-ERK in Caco-2 and HCA-7 cells; format: cell-based, human; details: 100, 250 or 500 μM, 5 min
Procedure: as §1, with “Following blocking of non-specific antibody binding, the blots were exposed to rabbit polyclonal anti-pAKT (Cell Signaling Technology, Danvers, Mass.) or mouse monoclonal anti-pERK (Santa Cruz Biotechnology, Inc., Santa Cruz, Calif.) and developed with secondary antibody using standard methods.” left out

[4] = 0.15 mmol/kg i.v. over 5 minutes, AT6.1 tumor

- relaxivity r1 [2]: 2.5 ± 0.2 mM⁻¹ s⁻¹
- vanadyl concentration in tumor tissue (AT6.1 prostate tumors): remained relatively high
Molecule: Bis(acetylacetonato)oxovanadium(IV) [VO(acac)2]
- uptake of glucose (3T3-L1 adipocytes; in the presence of equimolar concentrations of serum albumin, 30 min incubation): maximally enhanced
- blood pH, pCO2, HCO3−, TCO2, serum O2, Na+, K+, Ca2+, glucose, BUN, Hct, Hb [1]: fell within the normal range
- MR signal enhancement in tumor regions, often as high as (AT6.1 prostate tumor; [4]): ≤ 100%
- MR signal enhancement in tumor regions, typical (AT6.1 prostate tumor; [4]): greater than 50%
- enhancement in muscle for a long time after injection (AT6.1 prostate tumor; 0.15 mmol/kg i.v.): relatively little enhancement in muscle
- T1 and T2* contrast (AT6.1 prostate tumor; 0.15 mmol/kg i.v., 4.7 Tesla): excellent T1 and T2* contrast
- level of p-AKT compared to controls (p-AKT; 100 μM): 2 fold
- level of p-AKT compared to controls (p-AKT; 250 μM): 5 fold
- level of p-AKT compared to controls (p-AKT; 500 μM): 12 fold

- solubility in aqueous solutions [3]: completely soluble
Molecule: Bis(acetylamido)oxovanadium(IV) [VO(acac-NH2)2]

Molecule: O=S(=O)([O-])[O-].[O]=[V+2] [VOSO4, vanadyl sulfate, reference compound]
- activation of p-ERK (in words) (p-ERK): did not induce measurable activation
- activation of p-AKT (in words) (p-AKT; 100, 250 or 500 μM): did not induce measurable activation

Molecule: Cc1occc(=O)c1[O-].Cc1occc(=O)c1[O-].[O]=[V+2] [VO(malto)2, Bis(maltolato)oxovanadium(IV)]
- dependence of increase in glucose uptake on compound:serum albumin ratio (3T3-L1 adipocytes; data not shown): no clear dependence
- enhancement of glucose uptake per equivalent of VO2+ compared with VO(acac)2 and VO(OPT)2 (3T3-L1 adipocytes; data not shown): markedly less
- glucose uptake (effect in words) (3T3-L1 adipocytes; with or without 1 mM serum albumin, data not shown): facilitate glucose uptake
